Assays:
[1] = Dark stability of cisPt(IV)-1, by HPLC; format: physicochemical; settings: in the dark for about 30 min, free or mixed with radical spin traps
Experimental: 1 mM cisPt(IV)-1 (Pt(IV) complex of Formula (IIa)) and cisplatin in water was mixed with 1 or 10 mM DMPO or TEMPO. The mixed solution was irradiated with UV or kept in the dark for 10 min. The solution was analyzed by HPLC. The Pt(I) adduct products were characterized by ESI-HRMS, and the acetate radical adduct was separated and characterized by proton NMR. For the study of photolysis rate, the solution was irradiated with UV (365 nm, 9.8 mW/cm^2) for 0.5, 1, 2, 3, 4, 5 and 10 min, with or without the radical spin trap and analyzed by HPLC. For the study of dark stability, the solution was incubated at room temperature in the dark for 30 min before examined by HPLC.

[2] = Photolysis of Pt complexes in water under UV, by RP-HPLC; format: physicochemical; settings: 1 mM in water, 365 nm, 9.8 mW/cm^2, 10 min
Experimental: The photolysis of Pt complexes in test tubes was examined by reversed-phase high performance liquid chromatography (RP-HPLC). 1 mM Pt complexes were dissolved in water. Then the mixed solution was irradiated with UV light (365 nm, 9.8 mW/cm^2) for 10 min at room temperature, and the solution was examined by HPLC. The percentage of remained Pt complexes was obtained from the ratio of the peak area of Pt complexes upon irradiation to that of the intact Pt complexes.

| SMILES | stability in the dark [1] | percentage of intact Pt complex remaining upon irradiation [2] |
| --- | --- | --- |
| CC(=O)[O][Pt]([NH2])([NH2])([Cl])([Cl])[O]C(C)=O [cisPt(IV)-1] | remained intact |  |
| O=C1[O][Pt]2([NH][C@@H]3CCCC[C@H]3[NH]2)[O]C1=O [oxaliplatin] |  | 99% |
